Reference: patent publication US9630922B2, “3-spiro-7-hydroxamic acid tetralins as HDAC inhibitors” (Forma Therapeutics, Inc., priority 2015, dated 2017)

Biological target: T1, HDAC6 (Homo sapiens, UniProt Q9UBN7)
T1 construct: Full length human recombinant HDAC6 protein was expressed in baculoviral system; made in house; host or cells: baculoviral system
T1 sequence (Q9UBN7 1-1215): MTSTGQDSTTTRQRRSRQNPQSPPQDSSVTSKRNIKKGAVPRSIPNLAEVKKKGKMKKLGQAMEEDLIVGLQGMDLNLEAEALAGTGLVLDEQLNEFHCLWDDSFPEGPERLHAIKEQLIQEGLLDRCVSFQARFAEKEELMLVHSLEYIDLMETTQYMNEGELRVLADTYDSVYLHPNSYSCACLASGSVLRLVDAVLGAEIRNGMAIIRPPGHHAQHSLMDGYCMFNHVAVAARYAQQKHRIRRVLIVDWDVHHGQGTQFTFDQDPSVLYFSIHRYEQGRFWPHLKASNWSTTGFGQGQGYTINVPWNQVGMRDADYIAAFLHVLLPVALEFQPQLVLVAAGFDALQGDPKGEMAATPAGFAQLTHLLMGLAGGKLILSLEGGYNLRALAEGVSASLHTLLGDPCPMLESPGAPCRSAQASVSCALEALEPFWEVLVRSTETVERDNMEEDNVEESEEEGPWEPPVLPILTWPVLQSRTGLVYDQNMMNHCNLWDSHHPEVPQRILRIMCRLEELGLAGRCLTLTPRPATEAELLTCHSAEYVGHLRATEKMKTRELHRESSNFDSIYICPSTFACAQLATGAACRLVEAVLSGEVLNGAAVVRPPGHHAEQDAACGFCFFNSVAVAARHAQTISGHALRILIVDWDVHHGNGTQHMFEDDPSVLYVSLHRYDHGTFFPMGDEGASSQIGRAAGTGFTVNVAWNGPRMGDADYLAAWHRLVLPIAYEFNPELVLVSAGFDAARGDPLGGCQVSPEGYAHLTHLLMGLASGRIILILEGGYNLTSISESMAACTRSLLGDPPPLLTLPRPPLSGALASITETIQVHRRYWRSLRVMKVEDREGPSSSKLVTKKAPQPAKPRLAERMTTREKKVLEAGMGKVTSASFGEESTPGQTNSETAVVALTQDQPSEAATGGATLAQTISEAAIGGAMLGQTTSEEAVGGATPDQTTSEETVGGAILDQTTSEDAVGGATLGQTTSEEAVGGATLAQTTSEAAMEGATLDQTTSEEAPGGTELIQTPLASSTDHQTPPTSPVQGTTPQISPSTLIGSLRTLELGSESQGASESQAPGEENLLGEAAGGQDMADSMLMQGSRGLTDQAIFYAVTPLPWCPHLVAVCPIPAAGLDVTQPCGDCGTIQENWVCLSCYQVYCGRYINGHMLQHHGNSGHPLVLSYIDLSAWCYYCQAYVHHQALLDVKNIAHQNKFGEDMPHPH
Assay: In vitro Histone Deacetylase Assay (enzymatic HDAC6 electrophoretic mobility shift assay)
Assay type: biochemical
Details: full length human recombinant HDAC6, 1 nM enzyme, 2 μM peptide substrate RHKK(Ac)-NH2, 25° C.; read-out: HDAC6 activity range
Description: The enzymatic HDAC6 assay was performed using electrophoretic mobility shift assay. Full length human recombinant HDAC6 protein was expressed in baculoviral system and purified by affinity chromatography. The enzymatic reactions were assembled in 384 well plates in a total volume of 25 μL in a reaction buffer composing: 100 mM HEPES, pH7.5, 25 mM KCl, 0.1% bovine serum albumin, 0.01% Triton X-100, 1% DMSO (from compounds) 2 μM of the fluorescently labeled peptide substrate and enzyme. The enzyme was added at a final concentration of 1 nM. The peptide substrate RHKK(Ac)—NH2 was used. The compounds were tested at 12 concentrations spaced by 3× dilution intervals. Negative control samples (0%-inhibition in the absence of inhibitor) and positive control samples (100%-inhibition) were assembled in replicates of four in each assay plate. The reactions were incubated at 25° C. and quenched by the addition of 45 μL of termination buffer (100 mM HEPES, pH 7.5, 0.01% Triton X-100, 0.05% SDS).
The terminated assay plates were analyzed on LabChip® 3000 microfluidic electrophoresis instrument (Perkin Elmer/Caliper Life Sciences). The fluorescence intensity of the electrophoretically separated de-acetylated product and substrate peptide was measured. Activity in each sample was determined as the product to sum ratio (PSR): P/(S+P), where P is the peak height of the product peptide and S is the peak height of the substrate peptide. Percent inhibition (Pinh) is determined using the following equation:
Pinh=(PSR0%−PSRinh)/(PSR0%−PSR100%)*100, where PSRinh is the product sum ratio in the presence of inhibitor, PSR0% is the average product sum ration in the absence of inhibitor and PSR100% is the average product sum ratio in 100%-inhibition control samples. The IC50 values of inhibitors were determined by fitting the %-inhibition curves with 4 parameter dose-response model using XLfit 4 software.
As set forth in Table-31, below, IC50 values are defined as follows: IC50≦0.1 μM (+++); IC50>0.1 μM and ≦0.5 μM (++); IC50>0.5 μM (+).

Row | SMILES | IC50
1 | CC(C)CN1CCCC2(CCc3cc(C(=O)NO)ccc3C2)C1=O (single isomer, unassigned) [Compound I-189] | ≤ 0.1 µM
2 | CC(C)CN1CCCC2(CCc3cc(C(=O)NO)ccc3C2)C1=O (single isomer, unassigned) [Compound I-190] | ≤ 0.1 µM
3 | CC(C)N1CCCC2(CCc3cc(C(=O)NO)ccc3C2)C1=O (single isomer, unassigned) [Compound I-191] | ≤ 0.1 µM
4 | CC(C)N1CCCC2(CCc3cc(C(=O)NO)ccc3C2)C1=O (single isomer, unassigned) [Compound I-192] | ≤ 0.1 µM
5 | O=C(NO)c1ccc2c(c1)CC[C@@]1(CCCN(C3CC3)C1=O)C2 (single isomer, unassigned) [Compound I-193] | ≤ 0.1 µM
6 | CCN1CCCC2(CCc3cc(C(=O)NO)ccc3C2)C1=O (single isomer, unassigned) [Compound I-194] | ≤ 0.1 µM
7 | O=C(NO)c1ccc2c(c1)CCC1(CCCN(CC3COC3)C1=O)C2 (single isomer, unassigned) [Compound I-195] | ≤ 0.1 µM
8 | O=C(NO)c1ccc2c(c1)CCC1(CCCN(CC3COC3)C1=O)C2 (single isomer, unassigned) [Compound I-196] | ≤ 0.1 µM
9 | O=C(NO)c1ccc2c(c1)CC[C@@]1(CCCN(C3CCC3)C1=O)C2 (single isomer, unassigned) [Compound I-197] | ≤ 0.1 µM
10 | O=C(NO)c1ccc2c(c1)CC[C@]1(CCCN(C3CCC3)C1=O)C2 (single isomer, unassigned) [Compound I-198] | ≤ 0.1 µM
11 | CN1C[C@@]2(CCc3cc(C(=O)NO)ccc3C2)CC1=O (single isomer, unassigned) [Compound I-201] | ≤ 0.1 µM
12 | CN1CC2(CCc3cc(C(=O)NO)ccc3C2)CC1=O (single isomer, unassigned) [Compound I-202] | ≤ 0.1 µM
13 | O=C(NO)c1ccc2c(c1)CC[C@]1(CC(=O)N(c3ccccc3)C1)C2 (single isomer, unassigned) [Compound I-203] | ≤ 0.1 µM
14 | O=C(NO)c1ccc2c(c1)CCC1(CC(=O)N(c3ccccc3)C1)C2 (single isomer, unassigned) [Compound I-204] | ≤ 0.1 µM
15 | O=C(NO)c1ccc2c(c1)CC[C@]1(CC(=O)N(CC3CCC3)C1)C2 (single isomer, unassigned) [Compound I-205] | ≤ 0.1 µM

Other lines, results leading:

Row | IC50 | SMILES
16 | ≤ 0.1 µM | O=C(NO)c1ccc2c(c1)CC[C@]1(CCN(C3CCC3)C1=O)C2 (single isomer, unassigned) [Compound I-171]
17 | ≤ 0.1 µM | O=C(NO)c1ccc2c(c1)CC[C@@]1(CCN(C3CCC3)C1=O)C2 (single isomer, unassigned) [Compound I-172]
18 | ≤ 0.1 µM | CN1CCC[C@@]2(CCc3cc(C(=O)NO)ccc3C2)C1=O (single isomer, unassigned) [Compound I-179]
19 | ≤ 0.1 µM | CN1CCC[C@]2(CCc3cc(C(=O)NO)ccc3C2)C1=O (single isomer, unassigned) [Compound I-180]
20 | ≤ 0.1 µM | O=C(NO)c1ccc2c(c1)CC[C@@]1(CCCN(c3ccccc3)C1=O)C2 (single isomer, unassigned) [Compound I-181]
21 | ≤ 0.1 µM | O=C(NO)c1ccc2c(c1)CC[C@]1(CCCN(c3ccccc3)C1=O)C2 (single isomer, unassigned) [Compound I-182]
22 | ≤ 0.1 µM | CCN1CCCC2(CCc3cc(C(=O)NO)ccc3C2)C1=O (single isomer, unassigned) [Compound I-184]
23 | ≤ 0.1 µM | O=C(NO)c1ccc2c(c1)CC[C@@]1(CCCN(CC3CCC3)C1=O)C2 (single isomer, unassigned) [Compound I-185]
24 | ≤ 0.1 µM | O=C(NO)c1ccc2c(c1)CCC1(CCCN(CC3CCC3)C1=O)C2 (single isomer, unassigned) [Compound I-186]
25 | ≤ 0.1 µM | COCCCN1CCCC2(CCc3cc(C(=O)NO)ccc3C2)C1=O (single isomer, unassigned) [Compound I-187]
26 | ≤ 0.1 µM | COCCCN1CCCC2(CCc3cc(C(=O)NO)ccc3C2)C1=O (single isomer, unassigned) [Compound I-188]
